14 compounds from PubChem BioAssay AID342 (DTP/NCI, 2004) can be followed below.

Values joined by “and” are separate entries in the source; they are usually repeats but may differ in a detail not shown here. Equal values may be shown once.

For this assay, the system named is Swiss mice, Sarcoma 180 sc, mean tumor weight T/C. In words: NCI In Vivo Anticancer Drug Screen. Data for tumor model Sarcoma 180 (subcutaneous) in Swiss mice. The settings on record: endpoint: mean tumor weight, higher = larger tumour. The method in brief:
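Tumor-bearing mice, transplantable tumor; readout survival or tumor size; result = T/C, treated vs vehicle control.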

[1] abbreviates: dose: 66.0 mg/kg/injection, schedule: Q01DX007 (ip), vehicle: carboxymethylcellulose (CMC).
Where [2] appears, read: dose: 100.0 mg/kg/injection, schedule: Q01DX007 (ip), vehicle: carboxymethylcellulose (CMC).
The mark [3] stands for this setting: dose: 1.5 mg/kg/injection, schedule: Q01DX007 (ip), vehicle: carboxymethylcellulose (CMC).

On to `CCCC(=O)OCC1OC(n2cnc3c(=S)nc[nH]c32)C(OC(=O)CCC)C1OC(=O)CCC` (stereo not drawn), for which, where the note is “dose: 250.0 mg/kg/injection, schedule: Q01DX007 (ip), vehicle: carboxymethylcellulose (CMC)”, the T/C is 36 % of control.

`[N-]=[N+]=NC1(C(=O)O)CCCC1`: the T/C under setting [1] is 71 % of control; the T/C under setting [2] is 60 % of control; the T/C (dose: 225.0 mg/kg/injection, schedule: Q01DX007 (ip), vehicle: carboxymethylcellulose (CMC)) was 63 % of control.

Consider `Nc1nc(=S)c2[nH]cnc2[nH]1`, for which the T/C was 72 % of control (dose: 0.06 mg/kg/injection, schedule: Q#A X014 (ip), vehicle: carboxymethylcellulose (CMC)); 78 % of control (dose: 0.12 mg/kg/injection, schedule: Q01DX007 (ip), vehicle: carboxymethylcellulose (CMC)); 82 % of control (dose: 0.25 mg/kg/injection, schedule: Q01DX007 (ip), vehicle: carboxymethylcellulose (CMC)); 89 % of control (dose: 0.25 mg/kg/injection, schedule: Q#A X014 (ip), vehicle: carboxymethylcellulose (CMC)); 97 % of control (dose: 0.5 mg/kg/injection, schedule: Q01DX007 (ip), vehicle: carboxymethylcellulose (CMC)); 49 % of control (dose: 0.6 mg/kg/injection, schedule: Q01DX007 (ip), vehicle: carboxymethylcellulose (CMC)). Also, the T/C runs as follows: (dose: 0.75 mg/kg/injection, schedule: Q01DX007 (ip), vehicle: carboxymethylcellulose (CMC)) 78 % of control; (dose: 1.0 mg/kg/injection, schedule: Q01DX007 (ip), vehicle: carboxymethylcellulose (CMC)) 22 % of control and 37 % of control; (dose: 1.0 mg/kg/injection, schedule: Q#A X014 (ip), vehicle: carboxymethylcellulose (CMC)) 46 % of control; under setting [3], 33 % of control; (dose: 2.0 mg/kg/injection, schedule: Q01DX007 (ip), vehicle: carboxymethylcellulose (CMC)) 37 % of control and 50 % of control; (dose: 3.0 mg/kg/injection, schedule: Q01DX007 (ip), vehicle: carboxymethylcellulose (CMC)) 25 % of control. For the same compound, the T/C by setting is: (dose: 4.0 mg/kg/injection, schedule: Q#A X014 (ip), vehicle: carboxymethylcellulose (CMC)) 23 % of control; (dose: 6.7 mg/kg/injection, schedule: Q01DX007 (ip), vehicle: carboxymethylcellulose (CMC)) 10 % of control and 15 % of control; (dose: 10.0 mg/kg/injection, schedule: Q01DX007 (ip), vehicle: carboxymethylcellulose (CMC)) 3 % of control; (dose: 187.5 mg/kg/injection, schedule: Q#A X014 (ip), vehicle: carboxymethylcellulose (CMC)) 58 % of control; (dose: 375.0 mg/kg/injection, schedule: Q#A X014 (ip), vehicle: carboxymethylcellulose (CMC)) 51 % of control; (dose: 750.0 mg/kg/injection, schedule: Q#A X014 (ip), vehicle: carboxymethylcellulose (CMC)) 35 % of control. In addition, the T/C (dose: 1500.0 mg/kg/injection, schedule: Q#A X014 (ip), vehicle: carboxymethylcellulose (CMC)) was 16 % of control.

Take `CCOc1ccc2nc(S(N)(=O)=O)sc2c1`: the T/C reads like this: (dose: 25.0 mg/kg/injection, schedule: Q01DX007 (ip), vehicle: carboxymethylcellulose (CMC)) 78 % of control; (dose: 29.0 mg/kg/injection, schedule: Q01DX007 (ip), vehicle: carboxymethylcellulose (CMC)) 70 % of control; (dose: 44.0 mg/kg/injection, schedule: Q01DX007 (ip), vehicle: carboxymethylcellulose (CMC)) 22 % of control; (dose: 49.5 mg/kg/injection, schedule: Q#A X014 (ip), vehicle: methylcellulose (MC)) 29 % of control and 48 % of control; (dose: 50.0 mg/kg/injection, schedule: Q01DX007 (ip), vehicle: carboxymethylcellulose (CMC)) 39 % of control; under setting [1], 51 % of control. Moreover, the T/C was 13 % of control and 22 % of control (dose: 74.0 mg/kg/injection, schedule: Q#A X014 (ip), vehicle: methylcellulose (MC)); 43 % of control (dose: 99.0 mg/kg/injection, schedule: Q01DX007 (ip), vehicle: carboxymethylcellulose (CMC)); 34 % of control under setting [2].

`CCCCn1cnc2c(=S)nc(N)[nH]c21`: the T/C is, setting by setting: (dose: 1.65 mg/kg/injection, schedule: Q#A X014 (ip), vehicle: methylcellulose (MC)) 82 % of control; (dose: 2.5 mg/kg/injection, schedule: Q#A X014 (ip), vehicle: methylcellulose (MC)) 93 % of control; (dose: 3.75 mg/kg/injection, schedule: Q#A X014 (ip), vehicle: methylcellulose (MC)) 62 % of control; (dose: 5.5 mg/kg/injection, schedule: Q#A X014 (ip), vehicle: methylcellulose (MC)) 49 % of control.

Take `CCCCn1cnc2c(Sc3c([N+](=O)[O-])ncn3C)nc(N)nc21`: the T/C is 95 % of control (dose: 2.75 mg/kg/injection, schedule: Q#A X014 (ip), vehicle: methylcellulose (MC)); 53 % of control (dose: 4.15 mg/kg/injection, schedule: Q#A X014 (ip), vehicle: methylcellulose (MC)); 66 % of control (dose: 6.25 mg/kg/injection, schedule: Q#A X014 (ip), vehicle: methylcellulose (MC)); 51 % of control (dose: 9.37 mg/kg/injection, schedule: Q#A X014 (ip), vehicle: methylcellulose (MC)).

On to `O=C(Nc1ccc(NC2=NCCN2)cc1)c1ccc(C(=O)Nc2ccc(NC3=NCCN3)cc2)cc1`, for which the T/C is, setting by setting: (dose: 2.0 mg/kg/injection, schedule: Q01DX007 (ip), vehicle: saline) 109 % of control; (dose: 4.0 mg/kg/injection, schedule: Q01DX007 (ip), vehicle: saline) 95 % of control; (dose: 8.0 mg/kg/injection, schedule: Q01DX007 (ip), vehicle: saline) 97 % of control; (dose: 16.0 mg/kg/injection, schedule: Q01DX007 (ip), vehicle: saline) 43 % of control.

Take `O=C(O)c1cccc2c3c(cc([N+](=O)[O-])c12)CCCC3`: the T/C under setting [3] is 157 % of control.

In the case of `Nc1nc(=S)c2ncn(C3OC(CO)C(O)C3O)c2[nH]1` (stereo not drawn), the T/C by setting is: (dose: 0.62 mg/kg/injection, schedule: Q#A X014 (ip), vehicle: carboxymethylcellulose (CMC)) 86 % of control; (dose: 1.25 mg/kg/injection, schedule: Q#A X014 (ip), vehicle: carboxymethylcellulose (CMC)) 91 % of control; (dose: 1.3 mg/kg/injection, schedule: Q#A X014 (ip), vehicle: carboxymethylcellulose (CMC)) 86 % of control and 95 % of control; (dose: 2.0 mg/kg/injection, schedule: Q#A X014 (ip), vehicle: carboxymethylcellulose (CMC)) 83 % of control and 94 % of control; (dose: 2.5 mg/kg/injection, schedule: Q#A X014 (ip), vehicle: carboxymethylcellulose (CMC)) 86 % of control; (dose: 2.65 mg/kg/injection, schedule: Q#A X014 (ip), vehicle: carboxymethylcellulose (CMC)) 51 % of control and 74 % of control. Besides, the T/C (dose: 5.0 mg/kg/injection, schedule: Q#A X014 (ip), vehicle: carboxymethylcellulose (CMC)) is 90 % of control.

In the case of `CC(C)=C(Br)CC[C@@H](C)[C@H]1CC[C@@]2(C)C3=C(CC[C@]12C)[C@@]1(C)CC[C@H](O)C(C)(C)[C@@H]1CC3`, the T/C by setting is: (dose: 62.0 mg/kg/injection, schedule: Q01DX007 (sc), vehicle: steriod suspending solution) 109 % of control; (dose: 125.0 mg/kg/injection, schedule: Q01DX007 (sc), vehicle: steriod suspending solution) 97 % of control; (dose: 500.0 mg/kg/injection, schedule: Q01DX007 (sc), vehicle: steriod suspending solution) 183 % of control.

For `c1ccn(-c2nc(-n3cccc3)nc(-n3cccc3)n2)c1`, the T/C was 47 % of control (dose: 31.25 mg/kg/injection, schedule: Q#A X014 (ip), vehicle: carboxymethylcellulose (CMC)); 43 % of control (dose: 62.5 mg/kg/injection, schedule: Q#A X014 (ip), vehicle: carboxymethylcellulose (CMC)); 46 % of control (dose: 125.0 mg/kg/injection, schedule: Q#A X014 (ip), vehicle: carboxymethylcellulose (CMC)).

In the case of `CC(=O)OC(C)(C)/C=C/C(=O)[C@](C)(O)[C@H]1[C@H](O)C[C@@]2(C)[C@@H]3CC=C4[C@@H](C=C(O)C(=O)C4(C)C)[C@]3(C)C(=O)C[C@]12C`, the T/C (dose: 0.4 mg/kg/injection, schedule: Q01DX007 (ip), vehicle: carboxymethylcellulose (CMC)) was 54 % of control; the T/C (dose: 0.8 mg/kg/injection, schedule: Q01DX007 (ip), vehicle: carboxymethylcellulose (CMC)) was 29 % of control; the T/C (dose: 1.6 mg/kg/injection, schedule: Q01DX007 (ip), vehicle: carboxymethylcellulose (CMC)) was 94 % of control; the T/C (dose: 3.2 mg/kg/injection, schedule: Q01DX007 (ip), vehicle: carboxymethylcellulose (CMC)) was 88 % of control.

Consider `c1ccc(N2N=C3N(c4ccccc4)C2N3c2ccccc2)cc1`, for which the T/C by setting is: (dose: 15.0 mg/kg/injection, schedule: Q01DX007 (ip), vehicle: other) 114 % of control; (dose: 31.0 mg/kg/injection, schedule: Q01DX007 (ip), vehicle: other) 72 % of control.

`Nc1ncnc2c1ncn2C1OC(COCc2ccccc2)C(OCc2ccccc2)C1OCc1ccccc1` (stereo not drawn): the T/C is 88 % of control (dose: 10.0 mg/kg/injection, schedule: Q01DX007 (ip), vehicle: saline); 86 % of control and 107 % of control (dose: 20.0 mg/kg/injection, schedule: Q01DX007 (ip), vehicle: saline); 64 % of control and 87 % of control (dose: 40.0 mg/kg/injection, schedule: Q01DX007 (ip), vehicle: saline); 99 % of control (dose: 160.0 mg/kg/injection, schedule: Q01DX007 (ip), vehicle: saline).

As a reminder, the T/C is the ratio of treated to control.
